According to ChEMBL document CHEMBL4665755, “Discovery of a phenylpyrazole amide ROCK inhibitor as a tool molecule for in vivo studies” (Bioorg Med Chem Lett, 2020):
One block for each compound: values may come before it.

Legend:
[1] = Metabolic stability in human liver microsomes assessed as parent compound remaining at 0.5 uM after 10 mins; format: ADME, Microsome; settings: read-out: Stabilty
[2] = Metabolic stability in human liver microsomes assessed as half life; format: ADME, Microsome
[3] = AUC in mouse at 2 mg/kg, po; format: ADME, organism-based; design: dose 2 mg/kg; settings: in vivo
[4] = Permeability of the compound at pH 7.4 by PAMPA; format: ADME; settings: read-out: permeability
[5] = Permeability of the compound at pH 5.5 by PAMPA; format: ADME; settings: read-out: permeability
[6] = Cmax in mouse at 2 mg/kg, po; format: ADME, organism-based; design: route oral, dose 2 mg/kg; settings: in vivo
[7] = AUC in mouse at 10 mg/kg, po; format: ADME, organism-based; design: dose 10 mg/kg; settings: in vivo
[8] = Cmax in mouse at 10 mg/kg, po; format: ADME, organism-based; design: route oral, dose 10 mg/kg; settings: in vivo

remaining at 10 min, 0.5 µM [1]: 32%
Compound: COc1cccc([C@@H](C)NC(=O)c2ccc(-c3cn[nH]c3)c(OC)c2)c1

half-life [2]: 15 min
Compound: COc1cc(NC(=O)[C@H](O)c2ccccc2Cl)ccc1-c1cn[nH]c1

AUC [3]: 5 µM·h
Papp [4]: 44 ×10⁻⁶ cm/s
Papp [5]: 52 ×10⁻⁶ cm/s
remaining at 10 min, 0.5 µM [1]: 92%
Cmax [6]: 1.3 µM
Compound: COc1cc(C(=O)N[C@@H](c2ccccc2F)C(C)(C)O)ccc1-c1cn[nH]c1

AUC [7]: 140 µM·h
Papp [4]: 74 ×10⁻⁶ cm/s
Papp [5]: 45 ×10⁻⁶ cm/s
Cmax [8]: 28 µM
half-life [2]: 41 min
Compound: COc1cc(NC(=O)[C@H](N)CCc2ccccc2)ccc1-c1cn[nH]c1

half-life [2]: 20 min
Compound: COc1cc(NC(=O)[C@H](N)c2ccccc2Cl)ccc1-c1cn[nH]c1

half-life [2]: 62 min
Compound: COc1cc(NC(=O)[C@@H](N)CCc2ccccc2)ccc1-c1cn[nH]c1

AUC [7]: 90 µM·h
Papp [4]: 11 ×10⁻⁶ cm/s
Papp [5]: 10.5 ×10⁻⁶ cm/s
Cmax [8]: 21 µM
remaining at 10 min, 0.5 µM [1]: 87%
Compound: COc1cc(C(=O)N[C@H](CO)c2ccccc2)ccc1-c1cn[nH]c1

remaining at 10 min, 0.5 µM [1]: 93%
Compound: COc1cc(C(=O)N[C@H](CN)c2ccccc2)ccc1-c1cn[nH]c1

remaining at 10 min, 0.5 µM [1]: 49%
Compound: COc1cccc(CNC(=O)c2ccc(-c3cn[nH]c3)c(OC)c2)c1

half-life [2]: 36 min
Compound: COc1cc(NC(=O)Cc2ccccc2Cl)ccc1-c1cn[nH]c1

remaining at 10 min, 0.5 µM [1]: 73%
Compound: COc1cc(C(=O)N[C@H](C)c2ccccc2F)ccc1-c1cn[nH]c1

half-life [2]: 31 min
Compound: COc1cc(NC(=O)[C@H](N)Cc2ccc(Cl)c(Cl)c2)ccc1-c1cn[nH]c1

Further lines, the compound ahead of its results:

Compound: COc1cccc([C@@H](C)NC(=O)c2ccc(-c3cn[nH]c3)cc2OC)c1
remaining at 10 min, 0.5 µM [1]: 49%

Compound: COc1cc(C(=O)N[C@H](C)c2c(F)cccc2F)ccc1-c1cn[nH]c1
AUC [7]: 140 µM·h
Papp [4]: 61 ×10⁻⁶ cm/s
Papp [5]: 61 ×10⁻⁶ cm/s
Cmax [8]: 23 µM
remaining at 10 min, 0.5 µM [1]: 79%

Compound: CCc1cc(C(=O)N[C@H](C)c2cccc(OC)c2)ccc1-c1cn[nH]c1
remaining at 10 min, 0.5 µM [1]: 38%

Compound: COc1cccc([C@@H](C)NC(=O)c2ccc(-c3cn[nH]c3)c(Cl)c2)c1
remaining at 10 min, 0.5 µM [1]: 59%

Compound: COc1cccc([C@@H](C)NC(=O)c2ccc(-c3cn[nH]c3)c(OC)c2F)c1
remaining at 10 min, 0.5 µM [1]: 57%

Compound: COc1cc(C(=O)N[C@H](CO)c2c(F)cccc2F)ccc1-c1cn[nH]c1
remaining at 10 min, 0.5 µM [1]: 90%

Compound: COc1cccc([C@@H](C)NC(=O)c2ccc(-c3cn[nH]c3)c(C#N)c2)c1
remaining at 10 min, 0.5 µM [1]: 67%

Compound: COc1cccc([C@@H](C)NC(=O)c2ccc(-c3cn[nH]c3)c(C)c2)c1
AUC [7]: 35 µM·h
Papp [4]: 20 ×10⁻⁶ cm/s
Papp [5]: 29 ×10⁻⁶ cm/s
Cmax [8]: 12 µM
remaining at 10 min, 0.5 µM [1]: 74%

Compound: COc1cccc([C@@H](C)NC(=O)c2ccc(-c3cn[nH]c3)c(C(F)(F)F)c2)c1
remaining at 10 min, 0.5 µM [1]: 44%
